Experimental data reported in US20080241919A1, “Defined media for pluripotent stem cell culture” (The Burnham Institute of Medical Research, priority 2003, published 2008).

Assays:
[1] = test system: acetylated histone H3 and H4, Myc, Tip60 HAT, p300 HAT; assay: Chromatin state immunofluorescence (acetylated H3/H4, Myc, Tip60, p300) in hESCs; format: cell-based, human; details: named factor omitted from the media
Description: (c) Presence of both bFGF and insulin is essential for maintenance of an acetylated transcriptionally active chromatin state in undifferentiated hESCs. When either bFGF or insulin is omitted from the media, the differentiated hESC colonies express the differentiation-associated cell surface marker SSEA-1 [B, C] […] (green), Myc [E, F] (red), and histone acetyltransferase (HAT) Tip60 [I, K] (green) and p300 [J, K] […] All cells are indicated by DAPI staining of their nuclei (blue).
To discover the minimal essential conditions needed to support the long-term growth of undifferentiated hESCs, morphological analysis was used to assess the developmental stage of hESCs at different times. For these analyses hESCs were grown in a 6- or 12-well plate to maturation (day 6 or 7 after seeding) before being fixed and visualized under a phase contrast microscope. Cellular immunofluorescence was also employed to assess the state of differentiation of hESCs. […] The state of differentiation of hESC was further assessed by generating (via lentiviral-mediated transduction) hESCs carrying a reporter gene (enhanced green fluorescence protein (EGFP)) under control of the Oct-4 promoter. Using these transfected hESCs (carrying Oct-4 driven EGFP), the undifferentiated state of hESCs can be visualized by green fluorescence (indicating Oct-4 expression). […]

[2] = test system: human embryonic stem cells (hESCs); assay: Undifferentiated growth of hESCs on human foreskin fibroblast (HFF) feeder layer; format: cell-based
Procedure: Next, in order to establish a culture system that was free of non-human animal products, the human foreskin fibroblast (HFF) cell line Hs27 was used as a feeder layer. The human foreskin fibroblast (HFF) cell line, Hs27 (ATCC; Manassas, Va.; www.atcc.org) was expanded to create a master bank of frozen cells. The HFFs were plated in gelatin pre-coated 60 mm plates or 6-well plates at a density of 1.7×10^4/cm^2 and inactivated by irradiating at 50 Gy using a ^137Cs gamma-irradiator before being used as feeder cells. Undifferentiated hESCs, although originally maintained on MEFs, were transferred to plates of HFFs that had been mitotically inactivated by gamma irradiation. In the first attempts to transfer the hESCs to the human feeder layers, far more differentiated cells compared to those grown on MEFs were observed. When dealing with hESCs, the undifferentiated state was assessed by three criteria: (a) distinctive and defining stage-specific morphology and size; (b) the expression of immunomarkers associated with pluripotency; and (c) the absence of immunomarkers associated with lineage commitment.
In this media, less than 80% undifferentiated hESC colonies were observed on HFF feeders on every passage.

## bFGF: basic fibroblast growth factor, growth factor added to the defined hESC media
[1]
  immunoreactivity to acetylated H3 and H4, Myc, Tip60 HAT, nuclear focal localization of p300 HAT: undetectable or weak immunoreactivity
[2]; bFGF increased to 20 ng/ml from 4 ng/ml
  size of hESC colonies on HFFs: significantly larger
[2]; medium with bFGF 20 ng/ml
  number of passages undifferentiated hESCs maintained on HFF feeder layers: more than 50 passages
  time undifferentiated hESCs maintained on HFF feeder layers: over 12 months
[2]; medium with bFGF 20 ng/ml, 20% knockout Serum Replacement
  undifferentiated hESC colonies on HFF feeders on every passage: less than 80%
